Source: US20230024096A1, “BIFUNCTIONAL COMPOUNDS FOR THE TREATMENT OF CANCER” (Hoffmann-La Roche Inc., priority 2019, published 2023)

Target: T1, SMARCA2 (Homo sapiens, UniProt P51531)
T1 construct: endogenous in cells; host or cells: HT1080 (CRISPR HiBiT knock-in clone, generated in house)
Test: SMARCA2 HiBiT degradation assay (cellular)
Format: cell-based
Details: table head names A549; for DC50: 6 h incubation, HiBiT-tagged SMARCA2, luminescence read-out, read-out: HiBit A549 SMARCA2 IP (nM) 6 h; for Emax: A549, 6 h incubation, Emax = amount of residual protein remaining in the cell following compound treatment

T1 sequence (P51531 whole entry): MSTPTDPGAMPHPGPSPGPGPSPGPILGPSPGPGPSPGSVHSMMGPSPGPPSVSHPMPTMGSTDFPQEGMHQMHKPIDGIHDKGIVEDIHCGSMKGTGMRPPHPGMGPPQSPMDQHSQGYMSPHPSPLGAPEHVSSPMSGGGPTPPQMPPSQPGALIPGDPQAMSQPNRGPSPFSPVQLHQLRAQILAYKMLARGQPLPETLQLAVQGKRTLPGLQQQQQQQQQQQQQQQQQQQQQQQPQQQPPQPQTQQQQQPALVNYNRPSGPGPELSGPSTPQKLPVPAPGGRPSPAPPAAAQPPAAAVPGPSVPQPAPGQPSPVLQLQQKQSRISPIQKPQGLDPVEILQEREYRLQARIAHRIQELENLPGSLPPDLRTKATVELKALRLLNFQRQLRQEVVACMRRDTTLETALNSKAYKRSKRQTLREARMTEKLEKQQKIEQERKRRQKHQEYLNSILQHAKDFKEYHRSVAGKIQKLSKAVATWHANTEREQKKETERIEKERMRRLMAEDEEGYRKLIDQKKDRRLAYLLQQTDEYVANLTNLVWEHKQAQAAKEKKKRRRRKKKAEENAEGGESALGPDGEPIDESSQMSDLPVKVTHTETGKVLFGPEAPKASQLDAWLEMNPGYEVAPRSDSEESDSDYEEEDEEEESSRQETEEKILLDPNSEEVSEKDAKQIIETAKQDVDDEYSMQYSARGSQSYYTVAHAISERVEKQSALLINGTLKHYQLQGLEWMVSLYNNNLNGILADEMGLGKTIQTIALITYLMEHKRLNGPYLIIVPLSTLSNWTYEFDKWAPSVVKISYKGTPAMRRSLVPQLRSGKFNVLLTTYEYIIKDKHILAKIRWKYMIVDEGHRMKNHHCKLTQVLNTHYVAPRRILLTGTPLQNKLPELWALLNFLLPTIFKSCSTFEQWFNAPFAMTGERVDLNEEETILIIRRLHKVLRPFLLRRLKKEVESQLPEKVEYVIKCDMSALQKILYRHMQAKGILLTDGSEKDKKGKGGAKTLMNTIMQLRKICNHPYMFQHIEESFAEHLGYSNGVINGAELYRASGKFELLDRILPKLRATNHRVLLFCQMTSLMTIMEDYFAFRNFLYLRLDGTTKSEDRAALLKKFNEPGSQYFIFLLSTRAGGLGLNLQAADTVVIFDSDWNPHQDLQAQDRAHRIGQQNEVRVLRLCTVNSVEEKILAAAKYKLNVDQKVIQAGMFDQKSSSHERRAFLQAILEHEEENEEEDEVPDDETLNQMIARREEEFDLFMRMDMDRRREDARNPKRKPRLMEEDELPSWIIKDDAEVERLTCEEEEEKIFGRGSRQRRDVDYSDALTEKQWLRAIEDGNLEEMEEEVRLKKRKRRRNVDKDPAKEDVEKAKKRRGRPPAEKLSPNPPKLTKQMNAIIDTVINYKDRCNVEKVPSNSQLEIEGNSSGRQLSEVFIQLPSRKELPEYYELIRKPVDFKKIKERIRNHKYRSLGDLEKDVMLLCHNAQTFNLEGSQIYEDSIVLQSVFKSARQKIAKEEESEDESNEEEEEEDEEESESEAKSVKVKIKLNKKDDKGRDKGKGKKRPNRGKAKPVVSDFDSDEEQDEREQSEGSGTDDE

| DC50 | Emax | Structure (SMILES) |
| --- | --- | --- |
| 111 nM | 60% | Nc1nnc(-c2ccccc2O)cc1N1CCC(C(=O)N2CCC3(CC2)CN(C(=O)CC2CCN(c4ccc5c(c4)C(=O)N(C4CCC(=O)NC4=O)C5=O)CC2)CCO3)(c2ccccc2)CC1 (stereo not drawn) [Example 168, 5-(4-(2-(9-(1-(3-amino-6-(2-hydroxyphenyl)pyridazin-4-yl)-4-phenylpiperidine-4-carbonyl)-1-oxa-4,9-diazaspiro[5.5]undecan-4-yl)-2-oxoethyl)piperidin-1-yl)-2-(2,6-dioxopiperidin-3-yl)isoindoline-1,3-dione] |
| 49 nM | 56% | Nc1nnc(-c2ccccc2O)cc1N1CCC(C(=O)N2CCC3(CC2)CN(C(=O)CN2CCC(c4ccc(NC5CCC(=O)NC5=O)cc4)CC2)CCO3)(c2ccccc2)CC1 (stereo not drawn) [Example 169, 3-((4-(1-(2-(9-(1-(3-amino-6-(2-hydroxyphenyl)pyridazin-4-yl)-4-phenylpiperidine-4-carbonyl)-1-oxa-4,9-diazaspiro[5.5]undecan-4-yl)-2-oxoethyl)piperidin-4-yl)phenyl)amino)piperidine-2,6-dione] |
| 110 nM | 72% | Nc1nnc(-c2ccccc2O)cc1N1CCC(C(=O)N2CCC3(CC2)CN(C(=O)CN2CCN(c4ccc(NC5CCC(=O)NC5=O)cc4)CC2)CCO3)(c2ccccc2)CC1 (stereo not drawn) [Example 173, 3-((4-(4-(2-(9-(1-(3-amino-6-(2-hydroxyphenyl)pyridazin-4-yl)-4-phenylpiperidine-4-carbonyl)-1-oxa-4,9-diazaspiro[5.5]undecan-4-yl)-2-oxoethyl)piperazin-1-yl)phenyl)amino)piperidine-2,6-dione] |
| 123 nM | 54% | Nc1nnc(-c2ccccc2O)cc1N1CCC(C(=O)N2CCC(C(=O)N3CCN(Cc4ccc5c(c4)C(=O)N(C4CCC(=O)NC4=O)C5=O)CC3)CC2)(c2ccccc2)CC1 (stereo not drawn) [Example 174, 5-((4-(1-(1-(3-amino-6-(2-hydroxyphenyl)pyridazin-4-yl)-4-phenylpiperidine-4-carbonyl)piperidine-4-carbonyl)piperazin-1-yl)methyl)-2-(2,6-dioxopiperidin-3-yl)isoindoline-1,3-dione] |
| 42 nM | 47% | Nc1nnc(-c2ccccc2O)cc1N1CCC(C(=O)N2CCC(C(=O)N3CCC(c4ccc(C5CCC(=O)NC5=O)cc4)CC3)CC2)(c2ccccc2)CC1 (stereo not drawn) [Example 175, 3-(4-(1-(1-(1-(3-amino-6-(2-hydroxyphenyl)pyridazin-4-yl)-4-phenylpiperidine-4-carbonyl)piperidine-4-carbonyl)piperidin-4-yl)phenyl)piperidine-2,6-dione] |
|  | 31% | Nc1nnc(-c2ccccc2O)cc1N1CCC(C(=O)N2CCC(C(=O)N3CCN(c4ccc(C5CCC(=O)NC5=O)cc4)CC3)CC2)(c2ccccc2)CC1 (stereo not drawn) [Example 176, 3-(4-(4-(1-(1-(3-amino-6-(2-hydroxyphenyl)pyridazin-4-yl)-4-phenylpiperidine-4-carbonyl)piperidine-4-carbonyl)piperazin-1-yl)phenyl)piperidine-2,6-dione] |
| 174 nM | 69% | Nc1nnc(-c2ccccc2O)cc1N1CCC(C(=O)N2CCC(C(=O)N3CCC(c4ccc(NC5CCC(=O)NC5=O)cn4)CC3)CC2)(c2ccccc2)CC1 (stereo not drawn) [Example 177, 3-((6-(1-(1-(1-(3-amino-6-(2-hydroxyphenyl)pyridazin-4-yl)-4-phenylpiperidine-4-carbonyl)piperidine-4-carbonyl)piperidin-4-yl)pyridin-3-yl)amino)piperidine-2,6-dione] |
| 187 nM | 46% | Nc1nnc(-c2ccccc2O)cc1N1CCC(C(=O)N2CCC(C(=O)N3CCN(c4ccc5c(c4)C(=O)N(C4CCC(=O)NC4=O)C5=O)CC3)CC2)(c2ccccc2)CC1 (stereo not drawn) [Example 178, 5-(4-(1-(1-(3-amino-6-(2-hydroxyphenyl)pyridazin-4-yl)-4-phenylpiperidine-4-carbonyl)piperidine-4-carbonyl)piperazin-1-yl)-2-(2,6-dioxopiperidin-3-yl)isoindoline-1,3-dione] |
| 99 nM | 56% | Nc1nnc(-c2ccccc2O)cc1N1CCC(C(=O)N2CCC3(CC2)CN(C(=O)CCCN2CCC(c4ccc(OC5CCC(=O)NC5=O)cc4)CC2)CCO3)(c2ccccc2)CC1 (stereo not drawn) [Example 181, 3-(4-(1-(4-(9-(1-(3-amino-6-(2-hydroxyphenyl)pyridazin-4-yl)-4-phenylpiperidine-4-carbonyl)-1-oxa-4,9-diazaspiro[5.5]undecan-4-yl)-4-oxobutyl)piperidin-4-yl)phenoxy)piperidine-2,6-dione] |
| 103 nM | 47% | Nc1nnc(-c2cc(F)cc(F)c2O)cc1N1CCC(CNC(=O)CCCN2CCC(c3ccc(OC4CCC(=O)NC4=O)cc3)CC2)(c2ccccc2)CC1 (stereo not drawn) [Example 182, N-[[1-[3-amino-6-(3,5-difluoro-2-hydroxy-phenyl)pyridazin-4-yl]-4-phenyl-4-piperidyl]methyl]-4-[4-[4-[(2,6-dioxo-3-piperidyl)oxy]phenyl]-1-piperidyl]butanamide] |
| 99 nM | 37% | Nc1nnc(-c2cc(F)ccc2O)cc1N1CCC(CNC(=O)CCCN2CCC(c3ccc(OC4CCC(=O)NC4=O)cc3)CC2)(c2ccccc2)CC1 (stereo not drawn) [Example 183, N-[[1-[3-amino-6-(5-fluoro-2-hydroxy-phenyl)pyridazin-4-yl]-4-phenyl-4-piperidyl]methyl]-4-[4-[4-[(2,6-dioxo-3-piperidyl)oxy]phenyl]-1-piperidyl]butanamide] |
| 494 nM | 65% | Nc1nnc(-c2ccccc2O)cc1N1CCC(NC(=O)CC2CCN(C(=O)C3CCN(c4ccc5c(c4)C(=O)N(C4CCC(=O)NC4=O)C5=O)CC3)CC2)(c2ccccc2)CC1 (stereo not drawn) [Example 184, N-[1-[3-amino-6-(2-hydroxyphenyl)pyridazin-4-yl]-4-phenyl-4-piperidyl]-2-[1-[1-[2-(2,6-dioxo-3-piperidyl)-1,3-dioxo-isoindolin-5-yl]piperidine-4-carbonyl]-4-piperidyl]acetamide] |
| 241 nM | 62% | Nc1nnc(-c2ccccc2O)cc1N1CCC(NC(=O)CC2CCN(C(=O)CCCN3CCC(c4ccc(NC5CCC(=O)NC5=O)cc4)CC3)CC2)(c2ccccc2)CC1 (stereo not drawn) [Example 185, N-[1-[3-amino-6-(2-hydroxyphenyl)pyridazin-4-yl]-4-phenyl-4-piperidyl]-2-[1-[4-[4-[4-[(2,6-dioxo-3-piperidyl)amino]phenyl]-1-piperidyl]butanoyl]-4-piperidyl]acetamide] |
| 148 nM | 42% | Nc1nnc(-c2ccccc2O)cc1N1CCC(C(=O)N2CC3(CCN(C(=O)C4CCN(c5ccc6c(c5)C(=O)N(C5CCC(=O)NC5=O)C6=O)CC4)C3)C2)(c2ccccc2)CC1 (stereo not drawn) [Example 186, 5-(4-(2-(1-(3-amino-6-(2-hydroxyphenyl)pyridazin-4-yl)-4-phenylpiperidine-4-carbonyl)-2,6-diazaspiro[3.4]octane-6-carbonyl)piperidin-1-yl)-2-(2,6-dioxopiperidin-3-yl)isoindoline-1,3-dione] |
| 579 nM | 53% | Nc1nnc(-c2ccccc2O)cc1N1CCC(C(=O)N2CC3(CCN(C(=O)CC4CCN(c5ccc6c(c5)C(=O)N(C5CCC(=O)NC5=O)C6=O)CC4)C3)C2)(c2ccccc2)CC1 (stereo not drawn) [Example 187, 5-(4-(2-(2-(1-(3-amino-6-(2-hydroxyphenyl)pyridazin-4-yl)-4-phenylpiperidine-4-carbonyl)-2,6-diazaspiro[3.4]octan-6-yl)-2-oxoethyl)piperidin-1-yl)-2-(2,6-dioxopiperidin-3-yl)isoindoline-1,3-dione] |
| 193 nM | 50% | Nc1nnc(-c2ccccc2O)cc1N1CCC(C(=O)N2CC3(CCN(C(=O)CCC4CCN(c5ccc6c(c5)C(=O)N(C5CCC(=O)NC5=O)C6=O)CC4)C3)C2)(c2ccccc2)CC1 (stereo not drawn) [Example 188, 5-(4-(3-(2-(1-(3-amino-6-(2-hydroxyphenyl)pyridazin-4-yl)-4-phenylpiperidine-4-carbonyl)-2,6-diazaspiro[3.4]octan-6-yl)-3-oxopropyl)piperidin-1-yl)-2-(2,6-dioxopiperidin-3-yl)isoindoline-1,3-dione] |
| 1370 nM | 62% | Nc1nnc(-c2ccccc2O)cc1N1CCC(C(=O)N2CC3(CCN(C(=O)COc4ccc5c(c4)C(=O)N(C4CCC(=O)NC4=O)C5=O)C3)C2)(c2ccccc2)CC1 (stereo not drawn) [Example 189, 5-(2-(2-(1-(3-amino-6-(2-hydroxyphenyl)pyridazin-4-yl)-4-phenylpiperidine-4-carbonyl)-2,6-diazaspiro[3.4]octan-6-yl)-2-oxoethoxy)-2-(2,6-dioxopiperidin-3-yl)isoindoline-1,3-dione] |
| 22 nM | 29% | Nc1nnc(-c2ccccc2O)cc1N1CCC(C(=O)N2CC3(CCN(CC4CCN(c5ccc6c(c5)C(=O)N(C5CCC(=O)NC5=O)C6=O)CC4)C3)C2)(c2ccccc2)CC1 (stereo not drawn) [Example 190, 5-(4-((2-(1-(3-amino-6-(2-hydroxyphenyl)pyridazin-4-yl)-4-phenylpiperidine-4-carbonyl)-2,6-diazaspiro[3.4]octan-6-yl)methyl)piperidin-1-yl)-2-(2,6-dioxopiperidin-3-yl)isoindoline-1,3-dione] |
| 30 nM | 37% | Nc1nnc(-c2ccccc2O)cc1N1CCC(C(=O)N2CC3(CCN(CCC4CCN(c5ccc6c(c5)C(=O)N(C5CCC(=O)NC5=O)C6=O)CC4)C3)C2)(c2ccccc2)CC1 (stereo not drawn) [Example 191, 5-(4-(2-(2-(1-(3-amino-6-(2-hydroxyphenyl)pyridazin-4-yl)-4-phenylpiperidine-4-carbonyl)-2,6-diazaspiro[3.4]octan-6-yl)ethyl)piperidin-1-yl)-2-(2,6-dioxopiperidin-3-yl)isoindoline-1,3-dione] |
| 57 nM | 34% | Nc1nnc(-c2ccccc2O)cc1N1CCC(C(=O)N2CC3(CCN(CCOC4CCN(c5ccc6c(c5)C(=O)N(C5CCC(=O)NC5=O)C6=O)CC4)C3)C2)(c2ccccc2)CC1 (stereo not drawn) [Example 192, 5-[4-[2-[2-[1-[3-amino-6-(2-hydroxyphenyl)pyridazin-4-yl]-4-phenyl-piperidine-4-carbonyl]-2,7-diazaspiro[3.4]octan-7-yl]ethoxy]-1-piperidyl]-2-(2,6-dioxo-3-piperidyl)isoindoline-1,3-dione] |
